Reference: patent publication US11274268B2, “Detergent compositions for removing heavy metals and formaldehyde” (FNG RESEARCH CO., LTD., priority 2017, dated 2022)

What was measured:
[1] = system: human skin; assay: Skin irritation test of active ingredient (patch method, CTFA guidelines); type: in vivo; details: for Test result (number of subject) (+) / Test result (number of subject) (−) / Test result (number of subject) (++) / Test result (number of subject) (±): 20 subjects, 24 hours patch; for Test result (number of subject) (+): apparent reddening; for Test result (number of subject) (−): no erythema or symptoms; for Test result (number of subject) (++): reddened and swollen; for Test result (number of subject) (±): slightly reddish; for Degree of irritation: Equation 1
Protocol: A total of 20 people (10 men and 10 women in their 20s and 30s) were tested for skin irritation using the patch method according to the guidelines of CTFA (The Cosmetic, Toiletry & Fragrance Association, Inc. Washington, D.C.).
A filter paper disk was placed in an 8 mm diameter, 10 panels of pin chamber.
After 24 hours, the pin chamber was removed, and skin conditions were visually observed. The degree and grade for skin irritation were calculated according to the following Equation 1, and the results are shown in Table 3 below.
[Criteria for Skin Irritation]
(−): No erythema or particularly no symptoms; (±): slightly reddish than the periphery; (+): Apparent reddening than periphery; (++): More reddened and swollen than periphery.
[Grade for Skin Irritation]
Degree of irritation 0-0.1: Grade I (unstimulated);
Degree of irritation 0.11-0.3: Grade II (weakly stimulated);
Degree of irritation 0.31-0.5: Grade III (moderately stimulated);
Degree of irritation 0.51 or more: Grade IV (strongly stimulated)

[2] = Formaldehyde removing ability test (GC); details: 2.0% formaldehyde solution, 3 molar equivalents, room temperature

Compound	Grade ([1]; content 0.1%)	Test result (number of subject) (+) ([1]; content 0.1%)	Test result (number of subject) (−) ([1]; content 0.1%)	Test result (number of subject) (++) ([1]; content 0.1%)	Test result (number of subject) (±) ([1]; content 0.1%)	Degree of irritation ([1]; content 0.1%)	Grade ([1]; content 0.5%)	Test result (number of subject) (+) ([1]; content 0.5%)	Test result (number of subject) (−) ([1]; content 0.5%)	Test result (number of subject) (++) ([1]; content 0.5%)	Test result (number of subject) (±) ([1]; content 0.5%)	Degree of irritation ([1]; content 0.5%)	Grade ([1]; content 1.0%)	Test result (number of subject) (+) ([1]; content 1.0%)	Test result (number of subject) (−) ([1]; content 1.0%)	Test result (number of subject) (++) ([1]; content 1.0%)	Test result (number of subject) (±) ([1]; content 1.0%)	Degree of irritation ([1]; content 1.0%)	Area (formaldehyde, GC) ([2]; 30 min) [mAU * min]	Area (formaldehyde, GC) ([2]; 180 min) [mAU * min]	other results
C1CNCCNCCNCCN1 [Cyclen, 1,4,7,10-tetraazacyclododecane]	I (Degree of irritation 0-0.1: Grade I (unstimulated))	0	20	0	0	0	I (Degree of irritation 0-0.1: Grade I (unstimulated))	0	20	0	0	0	II (Degree of irritation 0.11-0.3: Grade II (weakly stimulated))	1	18	0	1	0.15	0.181	0	Area (formaldehyde, GC) ([2]; Initial): 0.305 mAU * min
O=C(O)CN(CCN(CCN(CC(=O)O)CC(=O)O)CC(=O)O)CCN(CC(=O)O)CC(=O)O [Embodiment 1, 3,6,9,12-tetrakis(carboxymethyl)-3,6,9,12-tetraazatetradecanedioic Acid]	I (Degree of irritation 0-0.1: Grade I (unstimulated))	0	20	0	0	0	I (Degree of irritation 0-0.1: Grade I (unstimulated))	0	19	0	1	0.05	II (Degree of irritation 0.11-0.3: Grade II (weakly stimulated))	0	16	0	4	0.20	0.170	0	Area (formaldehyde, GC) ([2]; Initial): 0.305 mAU * min
O=C(O)c1ccc(N(CCN(CCN(c2ccc(C(=O)O)cc2)c2ccc(C(=O)O)cc2)c2ccc(C(=O)O)cc2)CCN(c2ccc(C(=O)O)cc2)c2ccc(C(=O)O)cc2)cc1 [Embodiment 2, 4,4′,4″,4′″-(((ethane-1,2-diylbis((4-carboxyphenyl)azanediyl))bis(ethane-2,1-diyl))bis(azanetriyl))tetrabenzoic Acid]	I (Degree of irritation 0-0.1: Grade I (unstimulated))	0	20	0	0	0	I (Degree of irritation 0-0.1: Grade I (unstimulated))	0	20	0	0	0	I (Degree of irritation 0-0.1: Grade I (unstimulated))	0	19	0	1	0.05	0.168	0	Area (formaldehyde, GC) ([2]; Initial): 0.305 mAU * min
O=C(O)c1ccc(N(CCN(CCN(c2ccc(C(=O)O)o2)c2ccc(C(=O)O)o2)c2ccc(C(=O)O)o2)CCN(c2ccc(C(=O)O)o2)c2ccc(C(=O)O)o2)o1 [Embodiment 4, 5,5′,5″,5′″-(((ethane-1,2-diylbis((5-carboxyfuran-2-yl)azanediyl))bis(ethane-2,1-diyl))bis(azanetriyl))tetrakis(furan-2-carboxylic Acid)]	I (Degree of irritation 0-0.1: Grade I (unstimulated))	0	20	0	0	0	I (Degree of irritation 0-0.1: Grade I (unstimulated))	0	20	0	0	0	I (Degree of irritation 0-0.1: Grade I (unstimulated))	0	19	0	1	0.05	0.173	0	Area (formaldehyde, GC) ([2]; Initial): 0.305 mAU * min
O=C(O)CN1CCN(CC(=O)O)CCN(CC(=O)O)CCN(CC(=O)O)CC1 [Embodiment 5, 2,2′,2″,2′″-(1,4,7,10-tetraazacyclododecane-1,4,7,10-tetrayl)tetraacetic Acid]	I (Degree of irritation 0-0.1: Grade I (unstimulated))	0	20	0	0	0	I (Degree of irritation 0-0.1: Grade I (unstimulated))	0	20	0	0	0	I (Degree of irritation 0-0.1: Grade I (unstimulated))	0	19	0	1	0.05	0.179	0	Area (formaldehyde, GC) ([2]; Initial): 0.305 mAU * min
O=C(O)c1ccc(N2CCN(c3ccc(C(=O)O)cc3)CCN(c3ccc(C(=O)O)cc3)CCN(c3ccc(C(=O)O)cc3)CC2)cc1 [Embodiment 6, 4,4′,4″,4′″-(1,4,7,10-tetraazacyclododecane-1,4,7,10-tetrayl)tetrabenzoic Acid]	I (Degree of irritation 0-0.1: Grade I (unstimulated))	0	20	0	0	0	I (Degree of irritation 0-0.1: Grade I (unstimulated))	0	20	0	0	0	I (Degree of irritation 0-0.1: Grade I (unstimulated))	0	19	0	1	0.05	0.183	0	Area (formaldehyde, GC) ([2]; Initial): 0.305 mAU * min
